Source: patent US8178668B2, “2-aminopyridine kinase inhibitors” (OSI Pharmaceuticals, LLC, priority 2008, dated 2012)
Counter-ions that a name gives are not always drawn.

How the values were obtained:
RON (human) = RON (human) (Homo sapiens, UniProt Q04912); assay: RON kinase AlphaScreen assay (Km of ATP); type: biochemical; conditions: ATP at Km; at least duplicate experiments
In short: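 Human RON phosphorylated biotinylated poly(Glu,Tyr) (200 ng/μL) at Km ATP in 50 mM HEPES pH 7.4, 12.5 mM MgCl2, 1% glycerol, 0.334 mM vanadate, 1% DMSO. Reaction ran 30 min at RT after enzyme addition. Product was detected by AlphaScreen with PT66 beads after 1 h.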

MET (human) = MET (human) (Homo sapiens, UniProt P08581); assay: MET kinase AlphaScreen assay (Km of ATP); type: biochemical; conditions: ATP at Km; at least duplicate experiments
In short: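 Biotinylated poly(Glu,Tyr) (200 ng/μL) phosphorylated by MET with ATP at an enzyme-optimized level, in 50 mM HEPES pH 7.4 with Mg2+/Mn2+ and vanadate, 1% DMSO. Reaction runs 60 min at RT. PT66 AlphaScreen donor/acceptor beads are added and signal is read after 1 h.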

Sequence of RON (human) (Q04912 25-1400): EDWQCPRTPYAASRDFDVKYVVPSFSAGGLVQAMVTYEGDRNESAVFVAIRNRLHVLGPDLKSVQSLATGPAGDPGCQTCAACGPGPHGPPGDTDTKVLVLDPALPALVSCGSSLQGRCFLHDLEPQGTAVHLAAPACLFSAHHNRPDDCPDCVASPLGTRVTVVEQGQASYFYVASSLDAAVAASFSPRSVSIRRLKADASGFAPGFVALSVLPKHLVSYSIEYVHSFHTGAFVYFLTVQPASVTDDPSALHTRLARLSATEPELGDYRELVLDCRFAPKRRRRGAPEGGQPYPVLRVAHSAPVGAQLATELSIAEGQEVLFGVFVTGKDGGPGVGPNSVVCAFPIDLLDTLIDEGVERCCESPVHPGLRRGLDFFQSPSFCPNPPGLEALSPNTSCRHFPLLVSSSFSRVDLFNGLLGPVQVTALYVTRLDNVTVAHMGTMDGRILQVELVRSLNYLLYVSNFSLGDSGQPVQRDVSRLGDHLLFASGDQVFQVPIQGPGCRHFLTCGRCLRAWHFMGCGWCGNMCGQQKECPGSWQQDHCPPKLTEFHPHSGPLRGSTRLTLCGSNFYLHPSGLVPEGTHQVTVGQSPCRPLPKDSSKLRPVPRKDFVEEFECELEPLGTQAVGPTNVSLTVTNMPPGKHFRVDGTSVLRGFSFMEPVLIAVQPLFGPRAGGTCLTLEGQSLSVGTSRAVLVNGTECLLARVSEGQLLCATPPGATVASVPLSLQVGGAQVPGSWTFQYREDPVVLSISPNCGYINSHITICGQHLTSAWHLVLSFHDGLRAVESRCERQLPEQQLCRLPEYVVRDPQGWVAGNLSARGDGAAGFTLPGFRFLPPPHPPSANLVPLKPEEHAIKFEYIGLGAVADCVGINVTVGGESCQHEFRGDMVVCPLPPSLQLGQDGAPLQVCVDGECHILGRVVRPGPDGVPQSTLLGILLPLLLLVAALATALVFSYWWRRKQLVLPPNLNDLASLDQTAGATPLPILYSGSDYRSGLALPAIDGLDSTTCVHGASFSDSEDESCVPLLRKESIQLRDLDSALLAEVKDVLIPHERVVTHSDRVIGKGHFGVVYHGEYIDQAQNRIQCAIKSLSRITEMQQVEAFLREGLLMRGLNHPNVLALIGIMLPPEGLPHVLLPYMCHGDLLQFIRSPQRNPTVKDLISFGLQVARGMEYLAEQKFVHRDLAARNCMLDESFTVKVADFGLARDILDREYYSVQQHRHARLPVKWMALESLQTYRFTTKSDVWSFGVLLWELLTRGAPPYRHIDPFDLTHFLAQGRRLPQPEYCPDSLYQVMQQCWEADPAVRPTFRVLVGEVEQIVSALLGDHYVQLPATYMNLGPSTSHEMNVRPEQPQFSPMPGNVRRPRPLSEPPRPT
Sequence of MET (human) (P08581 25-1390): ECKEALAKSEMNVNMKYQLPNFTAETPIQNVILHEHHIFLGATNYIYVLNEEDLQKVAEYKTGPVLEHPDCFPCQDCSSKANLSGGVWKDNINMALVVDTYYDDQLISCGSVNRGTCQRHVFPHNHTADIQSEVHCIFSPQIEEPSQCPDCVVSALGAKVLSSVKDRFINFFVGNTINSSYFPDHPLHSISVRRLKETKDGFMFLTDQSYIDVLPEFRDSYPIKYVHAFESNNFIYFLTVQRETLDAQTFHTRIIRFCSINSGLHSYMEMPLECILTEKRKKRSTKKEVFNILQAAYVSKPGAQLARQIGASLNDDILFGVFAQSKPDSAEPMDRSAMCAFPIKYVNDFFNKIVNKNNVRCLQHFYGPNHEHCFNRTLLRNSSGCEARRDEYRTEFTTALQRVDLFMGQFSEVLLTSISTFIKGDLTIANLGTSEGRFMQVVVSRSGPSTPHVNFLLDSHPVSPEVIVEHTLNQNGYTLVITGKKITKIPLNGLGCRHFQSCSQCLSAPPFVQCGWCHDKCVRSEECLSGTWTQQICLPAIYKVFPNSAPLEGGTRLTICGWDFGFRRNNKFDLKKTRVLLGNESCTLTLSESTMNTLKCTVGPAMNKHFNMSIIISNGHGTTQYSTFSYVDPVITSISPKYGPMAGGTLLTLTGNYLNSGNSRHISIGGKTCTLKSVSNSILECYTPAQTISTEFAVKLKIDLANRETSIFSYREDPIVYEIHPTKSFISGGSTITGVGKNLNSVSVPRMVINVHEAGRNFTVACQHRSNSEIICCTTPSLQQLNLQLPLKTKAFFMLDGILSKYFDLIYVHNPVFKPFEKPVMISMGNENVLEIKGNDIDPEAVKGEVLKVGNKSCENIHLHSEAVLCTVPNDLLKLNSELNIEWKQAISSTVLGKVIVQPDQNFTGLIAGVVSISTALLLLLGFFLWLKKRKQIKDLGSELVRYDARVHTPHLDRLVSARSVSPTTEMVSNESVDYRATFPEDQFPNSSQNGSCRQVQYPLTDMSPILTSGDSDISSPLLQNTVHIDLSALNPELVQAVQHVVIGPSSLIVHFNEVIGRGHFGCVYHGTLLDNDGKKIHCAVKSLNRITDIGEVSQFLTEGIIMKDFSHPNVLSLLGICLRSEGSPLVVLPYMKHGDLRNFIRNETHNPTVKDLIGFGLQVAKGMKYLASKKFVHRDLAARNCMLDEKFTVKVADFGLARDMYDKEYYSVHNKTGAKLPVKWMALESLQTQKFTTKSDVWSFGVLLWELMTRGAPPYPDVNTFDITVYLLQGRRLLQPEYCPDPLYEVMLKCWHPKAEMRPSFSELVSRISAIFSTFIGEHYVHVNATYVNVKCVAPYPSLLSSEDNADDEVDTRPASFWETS

SMILES	IC50 (RON (human)) [nM]	IC50 (MET (human)) [nM]
Nc1ncc(-c2cnc(N3CCOCC3)s2)cc1-c1nc2ccccc2s1 [Example 120, 3-Benzothiazol-2-yl-5-(2-morpholin-4-ylthiazol-5-yl)-pyridin-2-ylamine]	1000 to 20000	1000 to 20000
CN1CCN(c2ncc(-c3cnc(N)c(-c4nc5ccccc5s4)c3)s2)CC1 [Example 121, 3-Benzothiazol-2-yl-5-[2-(4-methylpiperazin-1-yl)-thiazol-5-yl]-pyridin-2-ylamine dihydrochloride]	100 to 1000	100 to 1000
Nc1ncc(-c2cnc(N3CCNCC3)s2)cc1-c1nc2ccccc2s1 [Example 122, 3-Benzothiazol-2-yl-5-(2-piperazin-1-ylthiazol-5-yl)-pyridin-2-ylamine dihydrochloride]	100 to 1000	100 to 1000
Nc1ncc(-c2cnn(C3CCC(=O)CC3)c2)cc1-c1nc2ccccc2s1 [Example 123, 4-[4-(6-Amino-5-benzothiazol-2-ylpyridin-3-yl)-pyrazol-1-yl]-cyclohexanone]	100 to 1000	100 to 1000
Nc1ncc(-c2cnn(C3CCC4(CC3)OCCO4)c2)cc1-c1nc2ccccc2s1 [Example 124, 3-Benzothiazol-2-yl-5-[1-(1,4-dioxaspiro[4.5]dec-8-yl)-1H-pyrazol-4-yl]-pyridin-2-ylamine]	1000 to 20000	> 20000
CC(C)(C)OC(=O)NCC#Cc1cnc(N)c(-c2nc3ccccc3s2)c1 [Example 125, [3-(6-Amino-5-benzothiazol-2-ylpyridin-3-yl)-prop-2-ynyl]-carbamic acid tert-butyl ester]	> 20000	1000 to 20000
NCC#Cc1cnc(N)c(-c2nc3ccccc3s2)c1 [Example 126, 5-(3-Aminoprop-1-ynyl)-3-benzothiazol-2-ylpyridin-2-ylamine]	> 20000	1000 to 20000
CN(C)C(=O)NCC#Cc1cnc(N)c(-c2nc3ccccc3s2)c1 [Example 127, 3-[3-(6-Amino-5-benzothiazol-2-ylpyridin-3-yl)-prop-2-ynyl]-1,1-dimethylurea]	1000 to 20000	1000 to 20000
CCN1CCN(C(=O)NCC#Cc2cnc(N)c(-c3nc4ccccc4s3)c2)CC1 [Example 128, 4-Ethylpiperazine-1-carboxylic acid [3-(6-amino-5-benzothiazol-2-ylpyridin-3-yl)-prop-2-ynyl]-amide]	1000 to 20000	1000 to 20000
NC(=O)NCC#Cc1cnc(N)c(-c2nc3ccccc3s2)c1 [Example 129, [3-(6-Amino-5-benzothiazol-2-ylpyridin-3-yl)-prop-2-ynyl]-urea]	1000 to 20000	1000 to 20000
CN(C)CC(=O)NCC#Cc1cnc(N)c(-c2nc3ccccc3s2)c1 [Example 130, N-[3-(6-Amino-5-benzothiazol-2-ylpyridin-3-yl)-prop-2-ynyl]-2-dimethylaminoacetamide]	1000 to 20000	100 to 1000
Nc1ncc(C#CCNC(=O)CN2CCCC2)cc1-c1nc2ccccc2s1 [Example 131, N-[3-(6-Amino-5-benzothiazol-2-ylpyridin-3-yl)-prop-2-ynyl]-2-pyrrolidin-1-ylacetamide]	1000 to 20000	1000 to 20000
COCCNC(=O)Cn1cc(-c2cnc(N)c(-c3nc4ccccc4s3)c2)cn1 [Example 134, 2-[4-(6-Amino-5-benzothiazol-2-ylpyridin-3-yl)-pyrazol-1-yl]-N-(2-methoxyethyl)-acetamide]	1000 to 20000	1000 to 20000
Nc1ncc(-c2cnn(CC(=O)NCCO)c2)cc1-c1nc2ccccc2s1 [Example 136, 2-[4-(6-Amino-5-benzothiazol-2-ylpyridin-3-yl)-pyrazol-1-yl]-N-(2-hydroxyethyl)-acetamide]	1000 to 20000	1000 to 20000
CNC(=O)Cn1cc(-c2cnc(N)c(-c3nc4ccccc4s3)c2)cn1 [Example 137, 2-[4-(6-Amino-5-benzothiazol-2-ylpyridin-3-yl)-pyrazol-1-yl]-N-methylacetamide]	> 20000	> 20000
COCCN(CCOC)C(=O)Cn1cc(-c2cnc(N)c(-c3nc4ccccc4s3)c2)cn1 [Example 138, 2-[4-(6-Amino-5-benzothiazol-2-ylpyridin-3-yl)-pyrazol-1-yl]-N,N-bis-(2-methoxyethyl)-acetamide]	1000 to 20000	1000 to 20000
CN(C)C(=O)Cn1cc(-c2cnc(N)c(-c3nc4ccccc4s3)c2)cn1 [Example 140, 2-[4-(6-Amino-5-benzothiazol-2-ylpyridin-3-yl)-pyrazol-1-yl]-N,N-dimethylacetamide]	1000 to 20000	1000 to 20000
COCCN(CCOC)C(=O)C(C)n1cc(-c2cnc(N)c(-c3nc4ccccc4s3)c2)cn1 (stereo not shown) [Example 143, 2-[4-(6-Amino-5-benzothiazol-2-ylpyridin-3-yl)-pyrazol-1-yl]-N,N-bis-(2-methoxyethyl)-propionamide]	1000 to 20000	1000 to 20000

Next, values leading:

IC50 (RON (human)) [nM]	IC50 (MET (human)) [nM]	SMILES
100 to 1000	100 to 1000	CN(C)C(=O)N1CCC(n2cc(-c3cnc(N)c(-c4nc5ccccc5s4)c3)cn2)CC1 [Example 117, 4-[4-(6-Amino-5-benzothiazol-2-yl-pyridin-3-yl)-pyrazol-1-yl]-piperidine-1-carboxylic acid dimethylamide bis-hydrochloride]
100 to 1000	100 to 1000	CC(C)n1cc(-c2cnc(N)c(-c3nc4ccccc4s3)c2)cn1 [Example 118, 3-Benzothiazol-2-yl-5-(1-isopropyl-1H-pyrazol-4-yl)-pyridin-2-ylamine bis-hydrochloride]
1000 to 20000	1000 to 20000	Cn1cc(-c2cnc(N)c(-c3nc4ccccc4s3)c2)cn1 [Example 119, 3-Benzothiazol-2-yl-5-(1-methyl-1H-pyrazol-4-yl)-pyridin-2-ylamine bis-hydrochloride]
1000 to 20000	1000 to 20000	Nc1ncc(-c2cnn(CC(=O)N3CCOCC3)c2)cc1-c1nc2ccccc2s1 [Example 132, 2-[4-(6-Amino-5-benzothiazol-2-ylpyridin-3-yl)-pyrazol-1-yl]-1-morpholin-4-ylethanone]
1000 to 20000	1000 to 20000	Nc1ncc(-c2cnn(CC(=O)N3CCCC3)c2)cc1-c1nc2ccccc2s1 [Example 133, 2-[4-(6-Amino-5-benzothiazol-2-ylpyridin-3-yl)-pyrazol-1-yl]-1-pyrrolidin-1-ylethanone]
1000 to 20000	1000 to 20000	Nc1ncc(-c2cnn(CC(=O)N3CCC(O)C3)c2)cc1-c1nc2ccccc2s1 (stereo not shown) [Example 135, 2-[4-(6-Amino-5-benzothiazol-2-ylpyridin-3-yl)-pyrazol-1-yl]-1-(3-hydroxypyrrolidin-1-yl)-ethanone]
1000 to 20000	1000 to 20000	Nc1ncc(-c2cnn(CC(=O)N3CCC(O)CC3)c2)cc1-c1nc2ccccc2s1 [Example 139, 2-[4-(6-Amino-5-benzothiazol-2-ylpyridin-3-yl)-pyrazol-1-yl]-1-(4-hydroxypiperidin-1-yl)-ethanone]
1000 to 20000	1000 to 20000	Nc1ncc(-c2cnn(CC(=O)N3CCCCC3)c2)cc1-c1nc2ccccc2s1 [Example 141, 2-[4-(6-Amino-5-benzothiazol-2-ylpyridin-3-yl)-pyrazol-1-yl]-1-piperidin-1-ylethanone]
1000 to 20000	1000 to 20000	CC(C(=O)N1CCOCC1)n1cc(-c2cnc(N)c(-c3nc4ccccc4s3)c2)cn1 (stereo not shown) [Example 142, 2-[4-(6-Amino-5-benzothiazol-2-ylpyridin-3-yl)-pyrazol-1-yl]-1-morpholin-4-ylpropan-1-one]
1000 to 20000	1000 to 20000	CNC(=O)C(C)n1cc(-c2cnc(N)c(-c3nc4ccccc4s3)c2)cn1 (stereo not shown) [Example 144, 2-[4-(6-Amino-5-benzothiazol-2-ylpyridin-3-yl)-pyrazol-1-yl]-N-methylpropionamide]
1000 to 20000	100 to 1000	CC(C(N)=O)n1cc(-c2cnc(N)c(-c3nc4ccccc4s3)c2)cn1 (stereo not shown) [Example 145, 2-[4-(6-Amino-5-benzothiazol-2-ylpyridin-3-yl)-pyrazol-1-yl]-propionamide]
1000 to 20000	1000 to 20000	COCCNC(=O)C(C)n1cc(-c2cnc(N)c(-c3nc4ccccc4s3)c2)cn1 (stereo not shown) [Example 146, 2-[4-(6-Amino-5-benzothiazol-2-ylpyridin-3-yl)-pyrazol-1-yl]-N-(2-methoxyethyl)-propionamide]
1000 to 20000	1000 to 20000	CC(C(=O)NCCO)n1cc(-c2cnc(N)c(-c3nc4ccccc4s3)c2)cn1 (stereo not shown) [Example 147, 2-[4-(6-Amino-5-benzothiazol-2-ylpyridin-3-yl)-pyrazol-1-yl]-N-(2-hydroxyethyl)-propionamide]
1000 to 20000	1000 to 20000	CC(C(=O)N(C)C)n1cc(-c2cnc(N)c(-c3nc4ccccc4s3)c2)cn1 (stereo not shown) [Example 148, 2-[4-(6-Amino-5-benzothiazol-2-ylpyridin-3-yl)-pyrazol-1-yl]-N,N-dimethylpropionamide]
1000 to 20000	1000 to 20000	CC(C(=O)N1CCC(O)C1)n1cc(-c2cnc(N)c(-c3nc4ccccc4s3)c2)cn1 (stereo not shown) [Example 149, 2-[4-(6-Amino-5-benzothiazol-2-ylpyridin-3-yl)-pyrazol-1-yl]-1-(3-hydroxypyrrolidin-1-yl)-propan-1-one]
100 to 1000	100 to 1000	CC(C(=O)N1CCC(O)CC1)n1cc(-c2cnc(N)c(-c3nc4ccccc4s3)c2)cn1 (stereo not shown) [Example 150, 2-[4-(6-Amino-5-benzothiazol-2-ylpyridin-3-yl)-pyrazol-1-yl]-1-(4-hydroxypiperidin-1-yl)-propan-1-one]
100 to 1000	100 to 1000	CC(C(=O)N1CCCC1)n1cc(-c2cnc(N)c(-c3nc4ccccc4s3)c2)cn1 (stereo not shown) [Example 151, 2-[4-(6-Amino-5-benzothiazol-2-ylpyridin-3-yl)-pyrazol-1-yl]-1-pyrrolidin-1-ylpropan-1-one]
